Measured values from patent US20070082880A1 (priority 2005, published 2007).
Where a name gives a salt, the structure may show the parent alone.

What was measured:
[1] = biological target: T1, human PKCθ full length enzyme (Homo sapiens, UniProt Q04759); assay: PKCθ IMAP Assay; assay type: biochemical; settings: average value when one or more samples were tested; ATP 6 uM, PKCθ 1 nM
T1 construct: human PKCθ full length enzyme (Panvera Catalog No. P2996); purchased Panvera P2996
Summary of the method: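 Full-length human PKCθ (1 nM final) with 6 uM ATP and 100 nM 5FAM-labelled peptide, 5% DMSO, 3.0 mM DTT in reaction buffer. 25 min at room temperature; IMAP bead binding 20 min, fluorescence polarization read. Compounds 2:1 serially diluted; no-ATP and no-enzyme wells as controls.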

T1 sequence (Q04759 whole entry): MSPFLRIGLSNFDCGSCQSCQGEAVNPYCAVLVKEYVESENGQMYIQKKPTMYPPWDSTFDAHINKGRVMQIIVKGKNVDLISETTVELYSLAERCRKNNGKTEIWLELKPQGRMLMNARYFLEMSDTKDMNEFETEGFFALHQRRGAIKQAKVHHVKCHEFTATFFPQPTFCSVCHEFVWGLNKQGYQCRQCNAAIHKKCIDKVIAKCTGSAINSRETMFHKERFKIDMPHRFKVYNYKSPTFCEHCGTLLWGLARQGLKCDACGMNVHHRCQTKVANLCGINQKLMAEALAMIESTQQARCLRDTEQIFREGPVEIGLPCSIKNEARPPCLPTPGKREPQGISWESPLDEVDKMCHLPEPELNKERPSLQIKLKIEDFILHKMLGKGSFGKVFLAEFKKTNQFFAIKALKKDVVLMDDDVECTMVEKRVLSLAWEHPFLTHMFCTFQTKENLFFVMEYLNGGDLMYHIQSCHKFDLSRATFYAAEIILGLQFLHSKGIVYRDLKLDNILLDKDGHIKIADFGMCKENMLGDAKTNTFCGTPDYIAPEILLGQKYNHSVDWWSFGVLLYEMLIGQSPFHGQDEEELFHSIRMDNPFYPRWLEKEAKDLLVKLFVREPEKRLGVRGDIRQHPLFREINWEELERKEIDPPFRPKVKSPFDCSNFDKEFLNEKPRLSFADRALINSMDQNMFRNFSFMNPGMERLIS

Compound | melting point | IC50 [1] [nM]
Cl.N#Cc1cnc2sc(I)cc2c1Nc1ccc2[nH]ccc2c1 | 250 to 252 °C | 
Cl.N#Cc1cnc2sc(I)cc2c1Nc1cccc2[nH]ccc12 | > 245 °C | 
Br.N#Cc1cnc2scc(Br)c2c1Nc1ccc2[nH]ccc2c1 | 249 to 251 °C | 
Cc1c(Nc2c(C#N)cnc3sc(/C=C/CN4CCOCC4)cc23)ccc2[nH]ccc12 (as salt: HCl) [Compound 275, 4-[(4-methyl-1H-indol-5-yl)amino]-2-[(1E)-3-morpholin-4-ylprop-1-en-1-yl]thieno[2,3-b]pyridine-5-carbonitrile] | 230 °C (dec.) | 
Cc1c(Nc2c(C#N)cnc3sc(C4CCN(Cc5ccccc5)C4)cc23)ccc2[nH]ccc12 (stereo not shown) (as salt: HCl) [Compound 479, 2-(1-benzylpyrrolidin-3-yl)-4-[(4-methyl-1H-indol-5-yl)amino]thieno[2,3-b]pyridine-5-carbonitrile] | 185 °C (dec.) | 
N#Cc1cnc2sc(I)cc2c1Nc1cccc2cc[nH]c12 [Compound 108, 4-(1H-indol-7-ylamino)-2-iodothieno[2,3-b]pyridine-5-carbonitrile] | > 245 °C | 
N#Cc1cnc2sc(-c3ccccc3)cc2c1NCc1ccc2[nH]ccc2c1 [Compound 124, 4-(1H-indol-5-ylmethylamino)-2-phenylthieno[2,3-b]pyridine-5-carbonitrile] | 219 to 221 °C | 3700
N#Cc1cnc2sc(-c3ccccc3)cc2c1Oc1ccc2[nH]ccc2c1 [Compound 130, 4-(1H-indol-5-yloxy)-2-phenylthieno[2,3-b]pyridine-5-carbonitrile] | 219 to 221 °C | 9300
N#Cc1cnc2sc(-c3ccc(C=O)cc3)cc2c1Nc1cccc2[nH]ccc12 [Compound 136, 2-(4-formylphenyl)-4-(1H-indol-4-ylamino)thieno[2,3-b]pyridine-5-carbonitrile] | > 245 °C | 
N#Cc1cnc2sc(-c3cccc(C=O)c3)cc2c1Nc1cccc2[nH]ccc12 [Compound 139, 2-(3-formylphenyl)-4-(1H-indol-4-ylamino)thieno[2,3-b]pyridine-5-carbonitrile] | > 245 °C | 
N#Cc1cnc2sc(-c3cccc(C=O)c3)cc2c1Nc1ccc2[nH]ccc2c1 [Compound 144, 2-(3-formylphenyl)-4-(1H-indol-5-ylamino)thieno[2,3-b]pyridine-5-carbonitrile] | 221 to 223 °C | 
N#Cc1cnc2sc(-c3ccccc3C=O)cc2c1Nc1ccc2[nH]ccc2c1 [Compound 184, 2-(2-formylphenyl)-4-(1H-indol-5-ylamino)thieno[2,3-b]pyridine-5-carbonitrile] | 222 to 224 °C | 
N#Cc1cnc2sc(I)cc2c1Nc1cnc2[nH]ccc2c1Cl [Compound 507, 4-[(4-chloro-1H-pyrrolo[2,3-b]pyridin-5-yl)amino]-2-iodothieno[2,3-b]pyridine-5-carbonitrile] |  | 69
CC(C)c1c(-c2cccc(CN(C)C)c2)sc2ncc(C#N)c(Nc3ccc4[nH]ccc4c3)c12 [Compound 516, 2-{3-[(dimethylamino)methyl]phenyl}-4-(1H-indol-5-ylamino)-3-isopropylthieno[2,3-b]pyridine-5-carbonitrile] |  | 1210
Cc1ccc(S(=O)(=O)n2ccc3c(Cl)c(Nc4c(C#N)cnc5sc(I)cc45)cnc32)cc1 [Compound 522, 4-({4-chloro-1-[(4-methylphenyl)sulfonyl]-1H-pyrrolo[2,3-b]pyridin-5-yl}amino)-2-iodothieno[2,3-b]pyridine-5-carbonitrile] |  | 14100
N#Cc1cnc2sc(-c3ccccc3)cc2c1Nc1cnc2[nH]ccc2c1Cl [Compound 524, 4-[(4-chloro-1H-pyrrolo[2,3-b]pyridin-5-yl)amino]-2-phenylthieno[2,3-b]pyridine-5-carbonitrile] |  | 48

Second part, the compound after the results:

melting point | IC50 [1] [nM] | Compound
258 to 260 °C |  | Cc1c(Nc2c(C#N)cnc3sc(C#C[Si](C)(C)C)cc23)ccc2[nH]ccc12
137 to 139 °C |  | N#Cc1cnc2sc(-c3ccccc3C=O)cc2c1Nc1cccc2[nH]ccc12 [Compound 142, 2-(2-formylphenyl)-4-(1H-indol-4-ylamino)thieno[2,3-b]pyridine-5-carbonitrile]
 | 21 | Cc1c(Nc2c(C#N)cnc3sc(-c4cnccn4)cc23)ccc2[nH]ccc12 [Compound 504, 4-[(4-methyl-1H-indol-5-yl)amino]-2-pyrazin-2-ylthieno[2,3-b]pyridine-5-carbonitrile]
 | 113 | Cc1c(Nc2c(C#N)cnc3sc(-c4cccc5[nH]ccc45)cc23)ccc2[nH]ccc12 [Compound 505, 2-(1H-indol-4-yl)-4-[(4-methyl-1H-indol-5-yl)amino]thieno[2,3-b]pyridine-5-carbonitrile]
 | 17 | Cc1c(Nc2c(C#N)cnc3sc(-c4cncnc4)cc23)ccc2[nH]ccc12 [Compound 506, 4-[(4-methyl-1H-indol-5-yl)amino]-2-pyrimidin-5-ylthieno[2,3-b]pyridine-5-carbonitrile]
 | 11 | Cc1c(Nc2c(C#N)cnc3scc(-c4cccc(CN(C)C)c4)c23)ccc2[nH]ccc12 [Compound 508, 3-{3-[(dimethylamino)methyl]phenyl}-4-[(4-methyl-1H-indol-5-yl)amino]thieno[2,3-b]pyridine-5-carbonitrile]
 | 51 | Cc1c(Nc2c(C#N)cnc3sc(-c4cccc(NS(=O)(=O)N(C)C)c4)cc23)ccc2[nH]ccc12 [Compound 509, N′-(3-{5-cyano-4-[(4-methyl-1H-indol-5-yl)amino]thieno[2,3-b]pyridin-2-yl}phenyl)-N,N-dimethylsulfamide]
 | 17 | Cc1c(Nc2c(C#N)cnc3sc(-c4cccc(S(=O)(=O)NCCO)c4)cc23)ccc2[nH]ccc12 [Compound 510, 3-{5-cyano-4-[(4-methyl-1H-indol-5-yl)amino]thieno[2,3-b]pyridin-2-yl}-N-(2-hydroxyethyl)benzenesulfonamide]
 | 66 | Cc1c(Nc2c(C#N)cnc3sc(-c4cc(C(=O)N(C)C)ccc4F)cc23)ccc2[nH]ccc12 [Compound 511, 3-{5-cyano-4-[(4-methyl-1H-indol-5-yl)amino]thieno[2,3-b]pyridin-2-yl}-4-fluoro-N,N-dimethylbenzamide]
 | 38 | Cc1c(Nc2c(C#N)cnc3sc(-c4cc(F)cc(C(=O)N(C)C)c4)cc23)ccc2[nH]ccc12 [Compound 512, 3-{5-cyano-4-[(4-methyl-1H-indol-5-yl)amino]thieno[2,3-b]pyridin-2-yl}-5-fluoro-N,N-dimethylbenzamide]
 | 1610 | COCCOc1ccc(-c2cc3c(Nc4ccc5[nH]ccc5c4C)c(C#N)cnc3s2)cc1OCCOC [Compound 513, 2-[3,4-bis(2-methoxyethoxy)phenyl]-4-[(4-methyl-1H-indol-5-yl)amino]thieno[2,3-b]pyridine-5-carbonitrile]
 | 71 | COc1ccc(C=O)c(-c2cc3c(Nc4ccc5[nH]ccc5c4C)c(C#N)cnc3s2)c1 [Compound 514, 2-(2-formyl-5-methoxyphenyl)-4-[(4-methyl-1H-indol-5-yl)amino]thieno[2,3-b]pyridine-5-carbonitrile]
 | 16 | COc1ccc(CN(C)C)c(-c2cc3c(Nc4ccc5[nH]ccc5c4C)c(C#N)cnc3s2)c1 [Compound 515, 2-{2-[(dimethylamino)methyl]-5-methoxyphenyl}-4-[(4-methyl-1H-indol-5-yl)amino]thieno[2,3-b]pyridine-5-carbonitrile]
 | 2 | COc1ccc(CNCCO)cc1-c1cc2c(Nc3ccc4[nH]ccc4c3C)c(C#N)cnc2s1 [Compound 517, 2-(5-{[(2-hydroxyethyl)amino]methyl}-2-methoxyphenyl)-4-[(4-methyl-1H-indol-5-yl)amino]thieno[2,3-b]pyridine-5-carbonitrile]
 | 59 | Cc1c(Nc2c(C#N)cnc3sc(-c4ccc(F)c(C(=O)N(C)C)c4)cc23)ccc2[nH]ccc12 [Compound 518, 5-{5-cyano-4-[(4-methyl-1H-indol-5-yl)amino]thieno[2,3-b]pyridin-2-yl}-2-fluoro-N,N-dimethylbenzamide]
 | 49 | Cc1c(Nc2c(C#N)cnc3sc(-c4cccc(N5CCCS5(=O)=O)c4)cc23)ccc2[nH]ccc12 [Compound 519, 2-[3-(1,1-dioxidoisothiazolidin-2-yl)phenyl]-4-[(4-methyl-1H-indol-5-yl)amino]thieno[2,3-b]pyridine-5-carbonitrile]
 | 74 | Cc1c(Nc2c(C#N)cnc3sc(-c4ccc5[nH]ccc5c4)cc23)ccc2[nH]ccc12 [Compound 520, 2-(1H-indol-5-yl)-4-[(4-methyl-1H-indol-5-yl)amino]thieno[2,3-b]pyridine-5-carbonitrile]
 | 37 | Cc1c(Nc2c(C#N)cnc3sc(-c4ccc5cc[nH]c5c4)cc23)ccc2[nH]ccc12 [Compound 521, 2-(1H-indol-6-yl)-4-[(4-methyl-1H-indol-5-yl)amino]thieno[2,3-b]pyridine-5-carbonitrile]
 | 15 | Cc1c(Nc2c(C#N)cnc3sc(-c4cccnn4)cc23)ccc2[nH]ccc12 [Compound 523, 4-[(4-methyl-1H-indol-5-yl)amino]-2-pyridazin-3-ylthieno[2,3-b]pyridine-5-carbonitrile]
 | 15 | COc1c(C=O)cccc1-c1cc2c(Nc3ccc4[nH]ccc4c3C)c(C#N)cnc2s1 [Compound 525, 2-(3-formyl-2-methoxyphenyl)-4-[(4-methyl-1H-indol-5-yl)amino]thieno[2,3-b]pyridine-5-carbonitrile]
 | 12 | COc1c(CN(C)C)cccc1-c1cc2c(Nc3ccc4[nH]ccc4c3C)c(C#N)cnc2s1 [Compound 526, 2-{3-[(dimethylamino)methyl]-2-methoxyphenyl}-4-[(4-methyl-1H-indol-5-yl)amino]thieno[2,3-b]pyridine-5-carbonitrile]
 | 35 | Cc1c(Nc2c(C#N)cnc3sc(-c4ccnn4C)cc23)ccc2[nH]ccc12 [Compound 527, 4-[(4-methyl-1H-indol-5-yl)amino]-2-(1-methyl-1H-pyrazol-5-yl)thieno[2,3-b]pyridine-5-carbonitrile]
